These results are taken from patent US10222390B2, “Near-infrared fluorescent sensors for biological amines” (The Curators of the University of Missouri, priority 2015, dated 2019).

Each structure is given as a SMILES string. “And” between values parts separate entries of the source, which are not always exact repeats. Identical values can stand only once.

Series [1] in a line: Spectral characteristics of sensors (absorption, emission, Stokes shift). The format is physicochemical. How it is done:
(§1) NeuroSensor 715 was screened with various relevant amines via absorption and fluorescence spectroscopy. Steady-state fluorescence spectroscopic studies were performed using a Horiba Scientific Fluorolog-3 Model FL3C-111 spectrofluorometer and data was collected and analyzed using HJY FluorEssence™ 3.5.1.20 software package. UV-visible spectra were recorded on a Varian Cary 1E UV-visible spectrophotometer at 37° C.
(§2) A 1 mg/mL stock solution of NeuroSensor 715 in DMSO was prepared. A stock solution of NeuroSensor 715 and derivatives in buffer (2×10^−5 M, 25 mM HEPES, 50 mM Na2S2O3, pH 5.0) was prepared. Serotonin, norepinephrine, dopamine, and glutamate stock solutions were prepared by separately dissolving the analytes at the concentration to be used in the titrations with the buffered stock solution of NeuroSensor 715 (thus avoiding dilution of NeuroSensor 715 during the experiment). NeuroSensor 715 was titrated with aliquots of the analyte solution. NeuroSensor 715 derivatives were excited at 559 nm. The slit width was 10 nm for both excitation and emission.

For series [2] the following is noted: in vitro; cited from earlier work.
Series [3] concerns epinephrine-enriched chromaffin cells. In words: Confocal imaging of epinephrine-enriched chromaffin cells incubated with NS715. Particulars: NS715 10 μM. The class given is cell-based. How it is done: (§3) NS715 binds to norepinephrine and strongly fluoresces, but not to epinephrine because it is a secondary-amine neurotransmitter. Both populations of cells were incubated with NS715 (10 μM), washed, and subsequently imaged using confocal microscopy. The unbound UV λmax=500 nm and the bound UV λmax=546 nm. The unbound sensor emits at 686 nm and the bound sensor emits at 715 nm. Excitation wavelengths of 458 nm and 633 nm were used to preferentially excite the unbound and bound forms of NS715. Emission for all excitation wavelengths was measured using 650 nm-710 nm bandpass filter.

Series [4] can be described thus: Interaction of NS715 with epinephrine in vitro. The class given is binding.
Series [5] has as its system norepinephrine-enriched chromaffin cells. In words: Confocal imaging of norepinephrine-enriched chromaffin cells incubated with NS715. The class given is cell-based. The note with it: NS715 10 μM. How it is done:
as §3

Series [6] in a line: Fluorescence/absorbance titration of NS715 with glutamate. The class given is binding. How it is done:
as §1, §2

The nature of series [7]: Fluorescence/absorbance titration of NS715 with norepinephrine. The format is binding. How it is done: as §1, §2
The nature of series [8]: Fluorescence/absorbance titration of NS715 with serotonin. The class given is binding. How it is done:
as §1, §2
NeuroSensor 715 binds to all primary amines via iminium ion formation, which produces a red shift in absorption from 500 to 546 nm (FIG. 6 (A)). In fluorescence mode, exciting the unbound NeuroSensor 715 at 559 nm provided fluorescence emission at 686 nm. In fluorescence mode, exciting the bound complex at 559 nm upon adding serotonin produced a marked 8.0-fold fluorescence enhancement at […] (FIG. 6 (B)).

Series [9] in a line: Fluorescence/absorbance titration of NS715 with dopamine. The format is binding. How it is done: as §1, §2
The mark [10] stands for this setting: sensor saturated with primary amine analyte (bound).
Setting [11] is: thiophene in place of benzene moiety on NeuroSensor 521 platform.
The mark [12] stands for this setting: intensity at saturation from fit.
Setting [13] is: λex = 559 nm, λem = 780 nm, buffer pH 5.0, error ±10%.

For `CCN(CC)c1ccc2c(-c3cccs3)c(C=O)c(=O)oc2c1`, in series [1] (setting [10]), the Stokes shift was determined as 37 nm, the λabs was found to be 502 nm and the λem came to 539 nm. Besides, in [1] (setting [11]), the “bathochromic shift in absorbance” value stood at 10 nm and the “bathochromic shift in fluorescence emission” value is reported as 17 nm. Also, in [1] (unbound sensor), the Stokes shift came to 60 nm, the λabs was found to be 462 nm and the λem turned out to be 522 nm.
Consider `CCN(CC)c1ccc2c(-c3ccc(OC)cc3)c(C=O)c(=O)oc2c1` [NS521], for which, in series [2], the “fluorescence response upon interaction with serotonin” value was “fluorescence quenching”.
`CCN1CCN(CC)c2cc3c(-c4cccs4)c(C=O)c(=O)oc3cc21` [NS715]: the “increase of Stokes shift compared to thiophene-based NeuroSensor 521 derivative” value in series [1] (both unbound and bound complex) is listed as “over 125 nm”. The Stokes shift in series [1] (setting [10]) was found to be 169 nm; in [1] (unbound sensor, listed as NeuroSensor 715), 186 nm. Moreover, the results for the λabs in [1] (setting [10]) and in [1] (unbound sensor) were 546 nm and 500 nm, respectively. Further, the λem in series [1] (setting [10]) is on record as 715 nm; in series [1] (unbound sensor), 686 nm. Further, the “fluorescence when excited at 633 nm” value in [3] is on record as “marginal fluorescence”; in series [5] (norepinephrine-enriched cells), “punctate pattern with strong fluorescence”. Further, the average fluorescence intensity in series [3] (650-710 nm bandpass, n=20) is on record as 0.85±0.29; in series [5] (norepinephrine-enriched cells, 650-710 nm bandpass, n=20), 12.42±1.75. Also, in [4], the “modulation of absorption or fluorescence spectrum upon interaction with epinephrine” value is listed as “no modulation in the absorption or fluorescence spectrum”. In series [5], the “average fluorescence intensity of norepinephrine-enriched cells relative to epinephrine-enriched cells” value worked out at 15 fold. Further, the fluorescence enhancement is listed as 3.0 fold in series [6]; 3.0 fold in series [7] (norepinephrine); 8.0 fold in series [8] (serotonin, at 715 nm); 8.0 fold in [8] (serotonin, excited at 559 nm, measured at 780 nm); 3.4 fold in series [9]. Further, the Isat/I0 in series [6] (setting [12]) is 3.0; in series [7] (norepinephrine, intensity at saturation from fit), 3.4; in [8] (serotonin, fluorescence intensity at saturation from fit to binding isotherm), 8.0; in series [9] (setting [12]), 4.0. Also, the Ka came to 22.3 M⁻¹ in series [6] (setting [13]); 129 M⁻¹ in series [7] (norepinephrine, λex = 559 nm, λem = 780 nm, buffer pH 5.0, error ±10%); 409 M⁻¹ in series [8] (serotonin, fluorescence spectroscopy, λex = 559 nm, λem = 780 nm, buffer pH 5.0, error ±10%); 145 M⁻¹ in [9] (setting [13]). For the same compound, the “higher binding constants of catecholamines compared to glutamate” value in series [7] (norepinephrine and dopamine on average vs glutamate) stood at 6.0 fold. Besides, in [8] (serotonin vs glutamate, listed as NeuroSensor 715), the “higher binding constant for serotonin compared to glutamate” value is 19 fold and 18 fold.
On to `CCN(CC)c1ccc2c(-c3ccccc3)c(C=O)c(=O)oc2c1` [benzene-based NeuroSensor 521 derivative], for which, in series [1] (setting [10]), the Stokes shift stood at 32 nm, the λabs stood at 488 nm and the λem was 520 nm. For the same compound, in series [1] (unbound sensor), the Stokes shift is 53 nm, the λabs was found to be 452 nm and the λem worked out at 505 nm.
